# Test results published in the kinase profiling compilation of Christmann-Franck et al. (2016).
# What was measured:
# Test in all cases: radiometric filter-binding kinase assay, Kinase HotSpot
# Settings in all cases: compound 0.5 µM; ATP 10 µM
# RAF1 (human) = RAF1 (human) (UniProt P04049)
# CDK7 CCNH MNAT1 (human) = CDK7 CCNH MNAT1 (human) (UniProt P50613+P51948+P51946)
# MAP2K1 (human) = MAP2K1 (human) (UniProt Q02750)
# EPHB3 (human) = EPHB3 (human) (UniProt P54753)
# MERTK (human) = MERTK (human) (UniProt Q12866)
# SLK (human) = SLK (human) (UniProt Q9H2G2)
# HIPK1 (human) = HIPK1 (human) (UniProt Q86Z02)
# PIM1 (human) = PIM1 (human) (UniProt P11309)
# STK16 (human) = STK16 (human) (UniProt O75716)
# MLTK (human) = MLTK (human) (UniProt Q9NYL2)
# PTK6 (human) = PTK6 (human) (UniProt Q13882)
# MAPK3 (human) = MAPK3 (human) (UniProt P27361)
# AURKA (human) = AURKA (human) (UniProt O14965)
# INSR (human) = INSR (human) (UniProt P06213)
# MAPKAPK5 (human) = MAPKAPK5 (human) (UniProt Q8IW41)
# AURKC (human) = AURKC (human) (UniProt Q9UQB9)
# PRKCA (human) = PRKCA (human) (UniProt P17252)
# EPHA8 (human) = EPHA8 (human) (UniProt P29322)
# EPHA8 (human), sequence (P29322 whole entry, looked up): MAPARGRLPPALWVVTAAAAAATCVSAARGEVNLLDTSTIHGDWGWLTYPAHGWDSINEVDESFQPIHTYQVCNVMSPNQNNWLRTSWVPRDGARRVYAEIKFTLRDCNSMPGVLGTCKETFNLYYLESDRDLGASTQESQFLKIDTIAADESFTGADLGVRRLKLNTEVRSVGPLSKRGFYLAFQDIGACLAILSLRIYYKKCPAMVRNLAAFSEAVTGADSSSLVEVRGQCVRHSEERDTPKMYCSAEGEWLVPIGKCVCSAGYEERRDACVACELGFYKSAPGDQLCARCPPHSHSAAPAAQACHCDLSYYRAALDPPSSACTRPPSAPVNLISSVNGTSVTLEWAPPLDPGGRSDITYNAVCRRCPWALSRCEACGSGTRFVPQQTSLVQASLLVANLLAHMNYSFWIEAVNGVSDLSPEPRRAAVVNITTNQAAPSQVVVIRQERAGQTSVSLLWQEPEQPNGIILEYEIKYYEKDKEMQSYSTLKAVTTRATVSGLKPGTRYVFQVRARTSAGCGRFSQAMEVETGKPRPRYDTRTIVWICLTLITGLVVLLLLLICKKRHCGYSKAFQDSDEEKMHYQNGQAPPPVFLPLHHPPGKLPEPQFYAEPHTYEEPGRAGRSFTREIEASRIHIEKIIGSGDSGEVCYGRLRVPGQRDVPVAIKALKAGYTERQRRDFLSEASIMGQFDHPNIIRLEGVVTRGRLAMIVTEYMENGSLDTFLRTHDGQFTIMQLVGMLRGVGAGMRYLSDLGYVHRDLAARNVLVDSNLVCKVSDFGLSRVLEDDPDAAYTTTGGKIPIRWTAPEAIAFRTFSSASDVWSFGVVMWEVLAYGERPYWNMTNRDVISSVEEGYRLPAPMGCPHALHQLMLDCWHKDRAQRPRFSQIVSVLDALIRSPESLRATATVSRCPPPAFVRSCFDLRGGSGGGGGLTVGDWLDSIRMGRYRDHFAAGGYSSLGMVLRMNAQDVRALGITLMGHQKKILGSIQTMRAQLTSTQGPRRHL
# PAK3 (human) = PAK3 (human) (UniProt O75914)
# GSK3B (human) = GSK3B (human) (UniProt P49841)
# EPHA2 (human) = EPHA2 (human) (UniProt P29317)
# EPHA2 (human), sequence (P29317 whole entry, looked up): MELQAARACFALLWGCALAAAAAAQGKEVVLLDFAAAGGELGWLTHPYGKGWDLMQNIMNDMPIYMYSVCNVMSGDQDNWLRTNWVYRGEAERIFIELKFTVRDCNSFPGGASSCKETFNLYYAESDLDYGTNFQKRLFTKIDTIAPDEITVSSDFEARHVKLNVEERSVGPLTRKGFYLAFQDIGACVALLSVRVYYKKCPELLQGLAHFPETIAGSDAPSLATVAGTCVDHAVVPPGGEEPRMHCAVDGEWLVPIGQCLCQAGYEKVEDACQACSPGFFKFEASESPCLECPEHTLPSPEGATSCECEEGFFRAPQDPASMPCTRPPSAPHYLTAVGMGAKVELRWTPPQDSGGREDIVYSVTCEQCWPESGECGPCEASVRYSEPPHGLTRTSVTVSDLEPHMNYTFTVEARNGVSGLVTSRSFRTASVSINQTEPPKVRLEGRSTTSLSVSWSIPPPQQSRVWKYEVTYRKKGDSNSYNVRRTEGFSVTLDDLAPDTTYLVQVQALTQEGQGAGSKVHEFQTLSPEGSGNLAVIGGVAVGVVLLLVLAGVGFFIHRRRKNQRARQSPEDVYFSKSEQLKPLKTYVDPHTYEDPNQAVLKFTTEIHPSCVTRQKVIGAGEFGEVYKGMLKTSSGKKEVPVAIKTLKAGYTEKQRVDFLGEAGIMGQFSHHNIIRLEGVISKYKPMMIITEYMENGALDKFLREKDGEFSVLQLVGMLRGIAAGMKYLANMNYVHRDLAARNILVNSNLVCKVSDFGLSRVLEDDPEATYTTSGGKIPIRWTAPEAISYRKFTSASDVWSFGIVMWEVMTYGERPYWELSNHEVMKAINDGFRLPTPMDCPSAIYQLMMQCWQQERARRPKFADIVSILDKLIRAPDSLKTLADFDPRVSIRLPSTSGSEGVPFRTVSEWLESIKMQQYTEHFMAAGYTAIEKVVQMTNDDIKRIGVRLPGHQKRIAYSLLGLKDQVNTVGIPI
# PBK (human) = PBK (human) (UniProt Q96KB5)
# NUAK2 (human) = NUAK2 (human) (UniProt Q9H093)
# SRPK3 (human) = SRPK3 (human) (UniProt Q9UPE1)
# OXSR1 (human) = OXSR1 (human) (UniProt O95747)
# NEK3 (human) = NEK3 (human) (UniProt P51956)
# ERBB2 (human) = ERBB2 (human) (UniProt P04626)
# CSNK1G1 (human) = CSNK1G1 (human) (UniProt Q9HCP0)
# CSF1R (human) = CSF1R (human) (UniProt P07333)
# IRAK4 (human) = IRAK4 (human) (UniProt Q9NWZ3)
# NEK6 (human) = NEK6 (human) (UniProt Q9HC98)
# NEK6 (human), sequence (Q9HC98 whole entry, looked up): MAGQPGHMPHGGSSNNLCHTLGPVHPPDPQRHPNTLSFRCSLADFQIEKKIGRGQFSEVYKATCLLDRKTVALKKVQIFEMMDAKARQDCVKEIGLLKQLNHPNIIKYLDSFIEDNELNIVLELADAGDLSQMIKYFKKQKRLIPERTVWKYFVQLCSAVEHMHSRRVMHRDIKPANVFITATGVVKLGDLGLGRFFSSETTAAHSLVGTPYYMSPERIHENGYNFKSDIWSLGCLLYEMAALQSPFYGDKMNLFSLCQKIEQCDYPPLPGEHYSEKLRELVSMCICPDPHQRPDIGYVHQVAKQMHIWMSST
# PRKCH (human) = PRKCH (human) (UniProt P24723)
# MAPK11 (human) = MAPK11 (human) (UniProt Q15759)
# PLK1 (human) = PLK1 (human) (UniProt P53350)
# PLK1 (human), sequence (P53350 whole entry, looked up): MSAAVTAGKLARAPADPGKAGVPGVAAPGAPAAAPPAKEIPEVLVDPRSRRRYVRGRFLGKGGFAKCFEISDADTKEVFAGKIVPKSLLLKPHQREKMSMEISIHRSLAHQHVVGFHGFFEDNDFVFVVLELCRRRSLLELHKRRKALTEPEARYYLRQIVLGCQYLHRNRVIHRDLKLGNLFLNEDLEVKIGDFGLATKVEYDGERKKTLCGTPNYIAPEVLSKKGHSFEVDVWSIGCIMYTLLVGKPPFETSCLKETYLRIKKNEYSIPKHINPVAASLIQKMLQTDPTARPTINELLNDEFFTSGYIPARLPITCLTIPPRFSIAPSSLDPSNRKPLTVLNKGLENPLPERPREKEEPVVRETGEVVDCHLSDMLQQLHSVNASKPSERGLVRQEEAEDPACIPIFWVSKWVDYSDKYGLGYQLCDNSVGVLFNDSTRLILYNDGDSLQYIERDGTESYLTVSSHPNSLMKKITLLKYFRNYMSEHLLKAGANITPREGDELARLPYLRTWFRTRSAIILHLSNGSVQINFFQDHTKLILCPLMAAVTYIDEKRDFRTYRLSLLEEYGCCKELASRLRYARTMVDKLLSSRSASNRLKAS
# AKT1 (human) = AKT1 (human) (UniProt P31749)
# [1] = molecular target: JAK1 JH1 catalytic (human) (UniProt P23458)
# DYRK1B (human) = DYRK1B (human) (UniProt Q9Y463)
# DYRK1B (human), sequence (Q9Y463 whole entry, looked up): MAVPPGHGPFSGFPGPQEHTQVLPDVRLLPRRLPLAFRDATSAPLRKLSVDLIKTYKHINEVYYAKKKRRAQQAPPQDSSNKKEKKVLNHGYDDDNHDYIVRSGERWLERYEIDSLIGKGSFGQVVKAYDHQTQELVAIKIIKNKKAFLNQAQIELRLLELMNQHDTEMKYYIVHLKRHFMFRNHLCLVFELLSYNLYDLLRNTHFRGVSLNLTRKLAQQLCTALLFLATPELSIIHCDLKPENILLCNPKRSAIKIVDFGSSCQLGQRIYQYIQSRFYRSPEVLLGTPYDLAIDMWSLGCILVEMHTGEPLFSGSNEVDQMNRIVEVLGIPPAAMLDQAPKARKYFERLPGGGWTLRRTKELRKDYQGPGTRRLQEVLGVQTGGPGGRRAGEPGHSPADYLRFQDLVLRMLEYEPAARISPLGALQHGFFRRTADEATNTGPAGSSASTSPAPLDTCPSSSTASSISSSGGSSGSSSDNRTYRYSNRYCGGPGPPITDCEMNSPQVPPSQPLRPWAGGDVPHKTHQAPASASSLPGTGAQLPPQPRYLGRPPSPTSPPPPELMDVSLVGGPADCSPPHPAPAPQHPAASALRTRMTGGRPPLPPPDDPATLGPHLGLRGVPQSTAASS
# CAMK2D (human) = CAMK2D (human) (UniProt Q13557)
# NTRK2 (human) = NTRK2 (human) (UniProt Q16620)
# PHKG1 (human) = PHKG1 (human) (UniProt Q16816)
# MAPKAPK3 (human) = MAPKAPK3 (human) (UniProt Q16644)
# PKN2 (human) = PKN2 (human) (UniProt Q16513)
# RAF1 (human), sequence (P04049 whole entry, looked up): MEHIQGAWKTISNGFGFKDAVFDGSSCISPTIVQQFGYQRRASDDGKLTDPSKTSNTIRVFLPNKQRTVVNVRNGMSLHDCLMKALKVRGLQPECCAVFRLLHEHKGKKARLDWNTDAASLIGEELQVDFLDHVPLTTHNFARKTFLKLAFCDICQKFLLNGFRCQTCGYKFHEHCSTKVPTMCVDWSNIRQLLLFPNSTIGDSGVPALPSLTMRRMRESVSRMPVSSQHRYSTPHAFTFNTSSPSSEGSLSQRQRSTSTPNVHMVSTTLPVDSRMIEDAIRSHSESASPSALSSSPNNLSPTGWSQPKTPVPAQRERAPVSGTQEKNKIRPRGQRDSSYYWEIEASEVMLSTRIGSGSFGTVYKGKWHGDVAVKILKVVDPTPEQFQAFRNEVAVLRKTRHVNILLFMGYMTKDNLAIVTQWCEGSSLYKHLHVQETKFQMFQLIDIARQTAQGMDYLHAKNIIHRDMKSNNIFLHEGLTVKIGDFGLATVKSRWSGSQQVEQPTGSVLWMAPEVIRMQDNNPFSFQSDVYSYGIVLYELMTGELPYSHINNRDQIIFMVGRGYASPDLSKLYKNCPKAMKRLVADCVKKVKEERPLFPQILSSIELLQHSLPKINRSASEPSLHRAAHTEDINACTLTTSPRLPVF
smiles,measurement,setting,value
CC(C)n1cnc2c(Nc3cccc(Cl)c3)nc(NCCO)nc21,residual activity,RAF1 (human),105%
same,residual activity,CDK7 CCNH MNAT1 (human),78.5%
same,residual activity,MAP2K1 (human),92.8%
same,residual activity,EPHB3 (human),119%
same,residual activity,MERTK (human),89.7%
same,residual activity,SLK (human),84.8%
same,residual activity,HIPK1 (human),99.8%
same,residual activity,PIM1 (human),93.9%
same,residual activity,STK16 (human),89.8%
same,residual activity,MLTK (human),96.6%
same,residual activity,PTK6 (human),90.2%
same,residual activity,MAPK3 (human),111%
same,residual activity,AURKA (human),108%
same,residual activity,INSR (human),97.3%
same,residual activity,MAPKAPK5 (human),68.6%
same,residual activity,AURKC (human),92.1%
same,residual activity,PRKCA (human),78.6%
same,residual activity,EPHA8 (human),98.2%
same,residual activity,PAK3 (human),96.7%
same,residual activity,GSK3B (human),96%
same,residual activity,EPHA2 (human),93.3%
same,residual activity,PBK (human),101%
same,residual activity,NUAK2 (human),89.8%
same,residual activity,SRPK3 (human),47.7%
same,residual activity,OXSR1 (human),97.7%
same,residual activity,NEK3 (human),92.6%
same,residual activity,ERBB2 (human),96.2%
same,residual activity,CSNK1G1 (human),16%
same,residual activity,CSF1R (human),94.8%
same,residual activity,IRAK4 (human),95.2%
same,residual activity,NEK6 (human),101%
same,residual activity,PRKCH (human),99.4%
same,residual activity,MAPK11 (human),92.2%
same,residual activity,PLK1 (human),44.1%
same,residual activity,AKT1 (human),103%
same,residual activity,[1],103%
same,residual activity,DYRK1B (human),78.8%
same,residual activity,CAMK2D (human),84.2%
same,residual activity,NTRK2 (human),66.1%
same,residual activity,PHKG1 (human),75.8%
same,residual activity,MAPKAPK3 (human),91%
same,residual activity,PKN2 (human),90.8%
Cc1cc2ncc(-c3ccccc3)nc2cc1C,residual activity,RAF1 (human),95.6%
same,residual activity,CDK7 CCNH MNAT1 (human),98.5%
same,residual activity,MAP2K1 (human),98%
same,residual activity,EPHB3 (human),98.4%
same,residual activity,MERTK (human),81.4%
same,residual activity,SLK (human),91.9%
same,residual activity,HIPK1 (human),105%
same,residual activity,PIM1 (human),101%
same,residual activity,STK16 (human),108%
same,residual activity,MLTK (human),102%
same,residual activity,PTK6 (human),93.6%
same,residual activity,MAPK3 (human),106%
same,residual activity,AURKA (human),92.1%
same,residual activity,INSR (human),94%
same,residual activity,MAPKAPK5 (human),95.1%
same,residual activity,AURKC (human),92.1%
same,residual activity,PRKCA (human),90.5%
same,residual activity,EPHA8 (human),94.5%
same,residual activity,PAK3 (human),96.2%
same,residual activity,GSK3B (human),79.5%
same,residual activity,EPHA2 (human),103%
same,residual activity,PBK (human),94.5%
same,residual activity,NUAK2 (human),124%
same,residual activity,SRPK3 (human),91.4%
same,residual activity,OXSR1 (human),85.6%
same,residual activity,NEK3 (human),93.7%
same,residual activity,ERBB2 (human),97.4%
same,residual activity,CSNK1G1 (human),85.7%
same,residual activity,CSF1R (human),82.1%
same,residual activity,IRAK4 (human),93.1%
same,residual activity,NEK6 (human),101%
same,residual activity,PRKCH (human),100%
same,residual activity,MAPK11 (human),96.8%
same,residual activity,PLK1 (human),101%
same,residual activity,AKT1 (human),101%
same,residual activity,[1],103%
same,residual activity,DYRK1B (human),106%
same,residual activity,CAMK2D (human),88.1%
same,residual activity,NTRK2 (human),103%
same,residual activity,PHKG1 (human),97.4%
same,residual activity,MAPKAPK3 (human),100%
same,residual activity,PKN2 (human),104%
O=c1cc(-c2cccc3c2Sc2ccccc2S3)oc(N2CCOCC2)c1,residual activity,RAF1 (human),94.7%
same,residual activity,CDK7 CCNH MNAT1 (human),96.5%
same,residual activity,MAP2K1 (human),94.9%
same,residual activity,EPHB3 (human),105%
same,residual activity,MERTK (human),97%
same,residual activity,SLK (human),93.5%
same,residual activity,HIPK1 (human),99.6%
same,residual activity,PIM1 (human),77.6%
same,residual activity,STK16 (human),95.5%
same,residual activity,MLTK (human),100%
same,residual activity,PTK6 (human),90.6%
same,residual activity,MAPK3 (human),118%
same,residual activity,AURKA (human),91.7%
same,residual activity,INSR (human),105%
same,residual activity,MAPKAPK5 (human),94.5%
same,residual activity,AURKC (human),84.9%
same,residual activity,PRKCA (human),80.3%
same,residual activity,EPHA8 (human),110%
same,residual activity,PAK3 (human),95%
same,residual activity,GSK3B (human),98.7%
same,residual activity,EPHA2 (human),96.2%
same,residual activity,PBK (human),99.4%
same,residual activity,NUAK2 (human),109%
same,residual activity,SRPK3 (human),99.6%
same,residual activity,OXSR1 (human),96.1%
same,residual activity,NEK3 (human),102%
same,residual activity,ERBB2 (human),97.3%
same,residual activity,CSNK1G1 (human),99.3%
same,residual activity,CSF1R (human),91.9%
same,residual activity,IRAK4 (human),160%
same,residual activity,NEK6 (human),103%
same,residual activity,PRKCH (human),99.7%
same,residual activity,MAPK11 (human),102%
same,residual activity,PLK1 (human),102%
same,residual activity,AKT1 (human),113%
same,residual activity,[1],105%
same,residual activity,DYRK1B (human),101%
same,residual activity,CAMK2D (human),104%
same,residual activity,NTRK2 (human),99.1%
same,residual activity,PHKG1 (human),106%
same,residual activity,MAPKAPK3 (human),102%
same,residual activity,PKN2 (human),72.9%
O=C(NC(NC(=S)Nc1ccc(F)c([N+](=O)[O-])c1)C(Cl)(Cl)Cl)C(c1ccccc1)c1ccccc1 (stereo not drawn),residual activity,RAF1 (human),95.3%
same,residual activity,CDK7 CCNH MNAT1 (human),99%
same,residual activity,MAP2K1 (human),95.1%
same,residual activity,EPHB3 (human),104%
same,residual activity,MERTK (human),96.2%
same,residual activity,SLK (human),95.2%
same,residual activity,HIPK1 (human),108%
same,residual activity,PIM1 (human),101%
same,residual activity,STK16 (human),99.4%
same,residual activity,MLTK (human),98.6%
same,residual activity,PTK6 (human),87.8%
same,residual activity,MAPK3 (human),120%
same,residual activity,AURKA (human),80.8%
same,residual activity,INSR (human),100%
same,residual activity,MAPKAPK5 (human),102%
same,residual activity,AURKC (human),93.8%
same,residual activity,PRKCA (human),73.1%
same,residual activity,EPHA8 (human),104%
same,residual activity,PAK3 (human),91.9%
same,residual activity,GSK3B (human),109%
same,residual activity,EPHA2 (human),103%
same,residual activity,PBK (human),116%
same,residual activity,NUAK2 (human),108%
same,residual activity,SRPK3 (human),98%
same,residual activity,OXSR1 (human),98.3%
same,residual activity,NEK3 (human),96.2%
same,residual activity,ERBB2 (human),94.8%
same,residual activity,CSNK1G1 (human),83.3%
same,residual activity,CSF1R (human),96.2%
same,residual activity,IRAK4 (human),191%
same,residual activity,NEK6 (human),109%
same,residual activity,PRKCH (human),103%
same,residual activity,MAPK11 (human),104%
same,residual activity,PLK1 (human),111%
same,residual activity,AKT1 (human),118%
same,residual activity,[1],106%
same,residual activity,DYRK1B (human),103%
same,residual activity,CAMK2D (human),102%
same,residual activity,NTRK2 (human),97.7%
same,residual activity,PHKG1 (human),104%
same,residual activity,MAPKAPK3 (human),106%
same,residual activity,PKN2 (human),88.1%
